# Experimental data taken from patent US20060015954A1, “GPR54 knock-out mammals and screening methods using them” (Paradigm Therapeutics Limited, priority 2002, published 2006).
# Where two headings read alike, the source gives them in different places. Ends that are not written are not given here.
# How the values were obtained:
# [1] = target: GPR54 (Homo sapiens, UniProt Q969F8); conditions: Lee et al 1999; Ohtaki et al 2001; cited from earlier work
# [2] = test system: LH secretion from the pituitary; experiment: Serum LH assay after administration of exogenous GnRH; format: in vivo, mice
# Protocol: (§1) 3) Administration of Exogenous GnRH and Effects on FSH and LH Secretion from the Pituitary
# (§2) Method: 25 ng of GnRH peptide was injected 4 times in 30 min intervals and the animals killed to collect blood and pituitary 30 min after last injection. All mice were killed between 11 am-1 pm.
# (§3) Animal groups: 6 WT injected with just PBS (control), 6 WT injected with GnRH made in PBS and 6 HP injected with GnRH/PBS. All WT animals were staged and used at dioestrous (end of LH and FSH surge). All mice aged 2-4 months. This was repeated for LH and FSH measurements.
# Serum LH assay: There is a 5-fold increase in LH in serum of WT injected with GnRH compared to those injected with just PBS.
# [3] = test system: FSH secretion from the pituitary; experiment: Serum FSH assay after administration of exogenous GnRH; format: in vivo, mice
# Protocol: as §1, §2, §3
# Serum FSH assay: There is a 1.9-fold increase in FSH in serum of WT injected with GnRH compared to those injected with just PBS.
# [4] = test system: LH levels in the pituitary; experiment: Depletion of LH levels in the pituitary after stimulation by exogenous GnRH; format: in vivo, mice; conditions: mutants, FIG. 15b
# Protocol: as §2, §3
# Measurement of the depletion of LH levels in the pituitary after stimulation by exogenous was measured. […] There were no deleterious effects of knocking out the gene in the mutants.
# [5] = test system: oxytocin secretion; conditions: intravenous injection, female rat; Kotani et al 2001; cited from earlier work
# [6] = test system: melanomas; conditions: mice with melanomas injected in footpads, administration by perfusion; Ohtaki et al 2001; cited from earlier work
# [7] = test system: B16-L16 melanoma cells transfected with the GPR54 receptor; conditions: cited from earlier work
# [8] = test system: ovaries (ovulation of mature oocytes); experiment: Exogenous gonadotrophins: ovulation in GPR54 mutant females; format: in vivo, mice; conditions: 1000 iu PMS followed two days later by 1000 iu bHCG, n=6
# From the text: This is consistent with the hypothesis that GPR54 receptors and ligands are acting at the level of the pituitary hypothalamic axis and not the end-organs.
# [9] = HP (GPR54 knockout) mice injected with GnRH against WT injected with just PBS
# Chain of GPR54 (Q969F8 whole entry, species assumed): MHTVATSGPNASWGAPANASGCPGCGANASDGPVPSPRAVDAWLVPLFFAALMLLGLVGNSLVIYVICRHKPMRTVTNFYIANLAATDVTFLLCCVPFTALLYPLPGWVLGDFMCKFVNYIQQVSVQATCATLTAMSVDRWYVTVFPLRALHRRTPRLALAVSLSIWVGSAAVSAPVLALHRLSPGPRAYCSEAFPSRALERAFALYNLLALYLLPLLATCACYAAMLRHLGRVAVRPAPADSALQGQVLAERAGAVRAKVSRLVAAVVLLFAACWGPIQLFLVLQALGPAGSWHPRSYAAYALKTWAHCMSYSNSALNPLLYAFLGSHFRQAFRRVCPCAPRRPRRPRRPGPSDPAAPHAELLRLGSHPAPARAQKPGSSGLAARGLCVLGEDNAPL
molecule,measurement,setting,value
"galanin-like peptide: galanin-like peptide reported not to activate GPR54 (APAHRGRGGWTLNSAGYLLGPVLHLPQMGDQDGKRETALEILDLWKAIDGLPYSHPPQPS; Galanin-like peptide; UniProt Q9UBC7 25-84, looked up)",activation of GPR54,[1],neither galanin nor galanin-like peptide activate GPR54
"GnRH: gonadotropin-releasing hormone peptide injected in PBS (QHWSYGLRPG; ends and bridges not checked; UniProt P01148 24-33, looked up)",increase in LH in serum,[2]; [9],5 fold
same,increase in LH in serum,[2]; WT mice injected with GnRH compared to WT injected with just PBS,5 fold
same,increase in FSH in serum,[3]; [9],1.7 fold
same,increase in FSH in serum,[3]; WT mice injected with GnRH (25 ng x 4 at 30 min intervals) compared to WT injected with just PBS,1.9 fold
same,LH levels in the pituitary after stimulation,[4],corresponding depletion of LH levels in the pituitary
"kisspeptin-10: kisspeptin peptide injected intravenously in female rat (YNWNSFGLRF; ends and bridges not checked; UniProt Q15726 112-121, looked up)",oxytocin secretion,[5],stimulates oxytocin secretion
"metastin: 54 amino acid kisspeptin, product of the Kiss-1 gene, natural ligand of GPR54 (GTSLSPPPESSGSPQQPGLSAPHSRQIPAPQGAVLVQREKDLPNYNWNSFGLRF; ends and bridges not checked; UniProt Q15726 68-121, looked up)",metastases,[6],significantly decreased metastases
same,cell motility,[7]; B16-L16 melanoma cells transfected with the GPR54 receptor,inhibits motility
same,cell motility,[7]; mock-transfected B16-L16 melanoma cells,not in mock-transfected cells
"bHCG: beta human chorionic gonadotrophins (protein, UniProt P0DN86 21-165, looked up) Choriogonadotropin subunit …: SKEPLRPRCRPINATLAVEKEGCPVCITVNTTICAGYCPTMTRVLQGVLPALPQVVCNYRDVRFESIRLPGCPRGVNPVVSYAVALSCQCALCRRSTTDCGGPKDHPLTCDDPRFQDSSSSKAPPPSLPSPSRLPGPSDTPILPQ",mutant females with ovulation of mature oocytes,[8],50%
